Experimental data taken from PubChem BioAssay (NCI).
Values joined by “and” are separate entries in the source; they are usually repeats but may differ in a detail not shown here. Equal entries are not always repeated.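 Test compounds were applied to cells in 96-well plates for 48 hours at 5 doses. GI50 = concentration required for 50% inhibition of growth. At the TGI there is no net growth.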

How the values were obtained:
Assay in all cases: NCI-60 cell line screen, 48 h
ACHN renal = test system: ACHN renal
UACC-257 melanoma = test system: UACC-257 melanoma
SF-539 CNS = test system: SF-539 CNS
LOX IMVI melanoma = test system: LOX IMVI melanoma
BT-549 breast = test system: BT-549 breast
CCRF-CEM leukemia = test system: CCRF-CEM leukemia
NCI-H226 lung = test system: NCI-H226 lung
MCF7 breast = test system: MCF7 breast
PC-3 prostate = test system: PC-3 prostate
MOLT-4 leukemia = test system: MOLT-4 leukemia
CAKI-1 renal = test system: CAKI-1 renal
SN12C renal = test system: SN12C renal
KM12 colon = test system: KM12 colon
786-0 renal = test system: 786-0 renal
T-47D breast = test system: T-47D breast
OVCAR-8 ovarian = test system: OVCAR-8 ovarian
OVCAR-5 ovarian = test system: OVCAR-5 ovarian
OVCAR-3 ovarian = test system: OVCAR-3 ovarian
HOP-92 NSCLC = test system: HOP-92 NSCLC
SR leukemia = test system: SR leukemia
OVCAR-4 ovarian = test system: OVCAR-4 ovarian
MALME-3M melanoma = test system: MALME-3M melanoma
EKVX NSCLC = test system: EKVX NSCLC
NCI-H23 lung = test system: NCI-H23 lung
SW-620 colon = test system: SW-620 colon
HCT-116 colon = test system: HCT-116 colon
K-562 leukemia = test system: K-562 leukemia
SK-MEL-2 melanoma = test system: SK-MEL-2 melanoma
COLO 205 colon = test system: COLO 205 colon
HT29 colon = test system: HT29 colon

Cc1ccc(NC(=O)c2ccc(CN3CC[C@H](N(C)C)C3)c(C(F)(F)F)c2)cc1Nc1nccc(-c2cncnc2)n1
TGI (ACHN renal): 14.8 µM and > 10 µM
GI50 (UACC-257 melanoma): 1.44 µM and 1.14 µM
TGI (UACC-257 melanoma): 6.74 µM and 3.53 µM
GI50 (SF-539 CNS): 4.5 µM and 6.26 µM
TGI (SF-539 CNS): 9.34 µM and > 10 µM
GI50 (LOX IMVI melanoma): 0.936 µM and 0.952 µM
TGI (LOX IMVI melanoma): 7.14 µM and > 10 µM
GI50 (BT-549 breast): 5.96 µM and > 10 µM
TGI (BT-549 breast): 13.3 µM and > 10 µM
GI50 (CCRF-CEM leukemia): 7.23 µM and 4.55 µM
TGI (CCRF-CEM leukemia): 30.9 µM and > 10 µM
GI50 (NCI-H226 lung): 15.2 µM and > 10 µM
TGI (NCI-H226 lung): 36.6 µM and > 10 µM
GI50 (MCF7 breast): 6.63 µM and > 10 µM
TGI (MCF7 breast): 24.6 µM and > 10 µM
GI50 (PC-3 prostate): 13.4 µM and > 10 µM
TGI (PC-3 prostate): 35 µM and > 10 µM
GI50 (MOLT-4 leukemia): 5.23 µM and 3.69 µM
TGI (MOLT-4 leukemia): 21.4 µM and > 10 µM
GI50 (CAKI-1 renal): 9.06 µM and > 10 µM
TGI (CAKI-1 renal): 27.4 µM and > 10 µM
GI50 (SN12C renal): 14.2 µM and > 10 µM
TGI (SN12C renal): 34.4 µM and > 10 µM
GI50 (KM12 colon): 6.65 µM and > 10 µM
TGI (KM12 colon): 23.5 µM and > 10 µM
GI50 (786-0 renal): 6.11 µM and 6.67 µM
TGI (786-0 renal): 14.9 µM and > 10 µM
GI50 (T-47D breast): 5.16 µM and > 10 µM
TGI (T-47D breast): 12.2 µM and > 10 µM
GI50 (OVCAR-8 ovarian): 13.8 µM and > 10 µM
TGI (OVCAR-8 ovarian): 36.1 µM and > 10 µM
GI50 (OVCAR-5 ovarian): 5.5 µM and 6.04 µM
TGI (OVCAR-5 ovarian): 24.2 µM and > 10 µM
GI50 (OVCAR-3 ovarian): 6.12 µM and 8.64 µM
TGI (OVCAR-3 ovarian): 20.5 µM and > 10 µM
GI50 (HOP-92 NSCLC): 5.1 µM and 1.66 µM
TGI (HOP-92 NSCLC): 22 µM and > 10 µM
GI50 (SR leukemia): 2.79 µM and 1.99 µM
TGI (SR leukemia): > 24.4 µM and 5.04 µM
GI50 (OVCAR-4 ovarian): 10.9 µM and > 10 µM
TGI (OVCAR-4 ovarian): 30.1 µM and > 10 µM
GI50 (MALME-3M melanoma): 0.217 µM and 0.402 µM
GI50 (EKVX NSCLC): 14.6 µM and > 10 µM
TGI (EKVX NSCLC): 40 µM and > 10 µM
GI50 (NCI-H23 lung): 5.61 µM and 8.08 µM
TGI (NCI-H23 lung): 26.5 µM and > 10 µM
GI50 (SW-620 colon): 6.15 µM and > 10 µM
TGI (SW-620 colon): 22.1 µM and > 10 µM
GI50 (HCT-116 colon): 1.62 µM and 2.61 µM
TGI (HCT-116 colon): 9.9 µM and > 10 µM
GI50 (K-562 leukemia): 0.00433 µM
TGI (K-562 leukemia): 5.6 µM and > 10 µM
GI50 (SK-MEL-2 melanoma): 2.64 µM and 2.5 µM
TGI (SK-MEL-2 melanoma): 13.3 µM and > 10 µM
GI50 (COLO 205 colon): 0.331 µM and 0.423 µM
TGI (COLO 205 colon): 6.65 µM and > 10 µM
GI50 (HT29 colon): 0.606 µM and 0.637 µM
TGI (HT29 colon): 15.7 µM and > 10 µM
